Results on 2 compounds are retold here after paper PMC10740425, “How Deep Learning in Antiviral Molecular Profiling Identified Anti-SARS-CoV-2 Inhibitors” (Biomedicines, 2023).

This assay concerns SARS-CoV-2 beta variant. The arrangement: species or system BALB/C mice. The note with it: mouse, in vivo, 5 mg/kg.

For `O=P(O)(O)OC[C@H]1O[C@@H](n2cnc3c(S)ncnc32)[C@H](O)[C@@H]1O` [thioinosinic acid], the “lung viral titers compared to vehicle control” value is on record as “approximately tenfold lower”.
Then `Cn1cnc([N+](=O)[O-])c1Sc1ncnc2nc[nH]c12` [azathioprine], with “did not demonstrate a significant reduction in viral titers”.
